Measured values: patent publication US11590117B2, “Treatment of a hematologic malignancy with 2-(4-chlorophenyl)-n-((2-(2,6-dioxopiperidin-3-yl)-1-oxoisoindolin-5-yl)methyl)-2,2-difluoroacetamide” (priority 2016, dated 2023)
pEC50: −log10 of the molar value. Read-outs that look alike come from different tables or passages of the source.

Assays:
Experiment in all cases: IncuCyte live cell imaging of cell viability, Red-labeled cell line
Assay type in all cases: cell-based
[1] = system: AML-193; settings: Homo sapiens, Red-labeled AML-193, read-out: Inhibition of Cell Viability EC50
Experimental: (§1) Derivation of Red-labeled Acute Myeloid Leukemia Cell Lines: Twelve cell lines, including AML-193, HL-60, KG-1, ML-2, MOLM-13, MV-4-11, NOMO-1, OCI-AML2, OCI-AML3, SIG-M5, TF-1, and THP-1, were stably transduced with Red lentivirus. Cells were plated in 6-well plates in growth media, incubated with 8 µg/mL polybrene (EMD Millipore Cat no. TR-1003-G) followed by infection with CellPlayer™ NucLight™ Red-lentiviral particles (Essen Biosciences Cat no. 4478) at a multiplicity of infectivity (MOI) of 0.5 to 2.5 for 24 hours. MOI refers to the ratio of virus particles to cells. Virus-containing media was replaced with fresh growth media and incubated for an additional 24 to 48 hours, followed by selection with Zeocin (500 to 2000 μg/mL), a derivative of bleomycin (Life Technologies-Invitrogen Cat no. R250-01). Cells were selected with fresh Zeocin every 3 to 4 days for 3 to 8 weeks. Cells were periodically viewed using fluorescent microscopy for nuclear-restricted red fluorescence. Zeocin selection was terminated once the population was confirmed to stably fluoresce red. All Red-labeled cell lines were acclimated to EMEM containing 20% FBS, with or without GM-CSF supplementation, allowing for optimal live cell imaging.
(§2) Incubation of Cell Cultures with Compound 1: Compound 1 was provided for studies by Celgene chemistry group at a stock concentration of 30 mM in 20 μL dimethyl sulfoxide (DMSO) frozen. Costar 96-well cell culture plates (Corning Cat no. 3595) were coated with 100 μL of 10 µg/mL fibronectin (Sigma-Aldrich Cat no. F1141) for 4 hours at 37° C. and immediately used or refrigerated overnight for later use. Cells (3000 to 6000 cells) were plated in growth medi in fibronectin-coated 96-well plates and incubated for a minimum of a few hours to overnight. Cells were incubated with a 12-point concentration response in triplicate with Compound 1 ([…]) including DMSO and Media controls. A 3-fold serial dilution of Compound 1 starting from a concentration of 200 μM in 0.6% DMSO (diluted in Media) was performed. For most sensitive cell lines, a 3-fold serial dilution of Compound 1 starting from a concentration of 20 μM in 0.6% DMSO (diluted in media) was performed. A volume of 5 μL or 10 μL for each dilution was added to 100 μL or 200 μL cells, respectively (0.3% DMSO final) and incubated for live cell imaging.
(§3) Live Cell Imaging on IncuCyte Zoom: Following incubation of cells with Compound 1, diluted Caspase 3/7 reagent (Essen Biosciences Cat no. 4440) is added to each well. The Caspase-3/7 reagent couples the activated caspase-3/7 recognition motif (DEVD) to NucView™488, a DNA intercalating dye. The cleavage of substrate by activated caspase-3/7 results in the release of the DNA dye and green fluorescent staining of nuclear DNA. This allows imaging of cells undergoing caspase-3/7 mediated apoptosis over time. Caspase-3/7 activation was quantified using the IncuCyte™ ZOOM basic analyzer. Red-labeled cell lines were also imaged over time using the IncuCyte™ ZOOM basic analyzer, for determination of both cell doubling time and Compound 1 effect on cell viability. Experiments were performed at least two times in each cell line.
(§4) Next, a 4 parameter log-logistic model was used to determine relative EC50 at each time point by the ‘drm’ function from the R ‘drc’ package (Ritz C, Streibig J C. Bioassay Analysis using R. J. Statist. Software 2005; 12(5):1-22). Goodness of fit was measured by R squared (coefficient of determination or the amount of variation explained by the model fit) of ≥80%, and EC50 parameter was assessed by having a ratio of standard error to the parameter of ≤40%, and the presence of at least one concentration point above and below the reported EC50.
(§5) Twelve Red-labeled human AML cell lines, established as described above, were incubated with Compound 1 dose range (0 to 10 μM) and Red fluorescence or Object count was imaged over time, as described above. […]

[2] = system: HL-60; settings: Homo sapiens, Red-labeled HL-60, read-out: Inhibition of Cell Viability EC50
Experimental: as §1, §2, §3, §4, §5

[3] = system: ML-2; settings: Homo sapiens, Red-labeled ML-2, read-out: Inhibition of Cell Viability EC50
Experimental: as §1, §2, §3, §4, §5

[4] = system: MV4-11; settings: Homo sapiens, Red-labeled MV4-11, read-out: Inhibition of Cell Viability EC50
Experimental: as §1, §2, §3, §4, §5

[5] = system: Nomo-1; settings: Homo sapiens, Red-labeled NOMO-1, read-out: Inhibition of Cell Viability EC50
Experimental: as §1, §2, §3, §4, §5

[6] = system: OCI-AML2; settings: Homo sapiens, read-out: Inhibition of Cell Viability EC50
Experimental: as §1, §2, §3, §4, §5

[7] = system: OCI-AML3; settings: Homo sapiens, read-out: Inhibition of Cell Viability EC50
Experimental: as §1, §2, §3, §4, §5

[8] = system: SIG-M5; settings: Homo sapiens, read-out: Inhibition of Cell Viability EC50
Experimental: as §1, §2, §3, §4, §5

[9] = system: TF-1; settings: Homo sapiens, Red-labeled TF-1, read-out: Inhibition of Cell Viability EC50
Experimental: as §1, §2, §3, §4, §5

SMILES: O=C1CCC(N2Cc3cc(CNC(=O)C(F)(F)c4ccc(Cl)cc4)ccc3C2=O)C(=O)N1 (centres unmarked) [Compound 1, 2-(4-chlorophenyl)-N-((2-(2,6-dioxopiperidin-3-yl)-1-oxoisoindolin-5-yl)methyl)-2,2-difluoroacetamide]
- pEC50 ([1]; 24 hr): 8.00
- pEC50 ([1]; 48 hr): 8.40
- pEC50 ([1]; 72 hr): 8.52
- pEC50 ([1]; 96 hr): 8.70
- pEC50 ([2]; 48 hr): 8.05
- pEC50 ([2]; 72 hr): 8.15
- pEC50 ([2]; 96 hr): 8.22
- pEC50 ([3]; 72 hr): 8.40
- pEC50 ([3]; 96 hr): 8.40
- pEC50 ([4]; 48 hr): 7.40
- pEC50 ([4]; 72 hr): 7.57
- pEC50 ([4]; 96 hr): 7.59
- pEC50 ([5]; 48 hr): 7.72
- pEC50 ([5]; 72 hr): 7.77
- pEC50 ([5]; 96 hr): 7.77
- pEC50 ([6]; 24 hr): 6.41
- pEC50 ([6]; 48 hr): 7.08
- pEC50 ([6]; 72 hr): 7.38
- pEC50 ([6]; 96 hr): 7.40
- pEC50 ([7]; OCI-AML-3, 72 hr): 6.74
- pEC50 ([7]; OCI-AML-3, 96 hr): 6.73
- pEC50 ([8]; 72 hr): 6.81
- pEC50 ([8]; 96 hr): 6.75
- pEC50 ([9]; 48 hr): 7.52
- pEC50 ([9]; 72 hr): 7.44
- pEC50 ([9]; 96 hr): 7.24
